In data set [1] the test system is Adipose-derived stem cells (ASC) and melanoma cells (B16 melanoma cells). In words: Cytotoxicity by MTT assay. The data set is classed as cell-based. Conditions: at a high concentration of 100 μM, FIG. 3 and FIG. 4. On the procedure: (§1) Adipose-derived stem cells (ASC) and melanoma cells (B16 melanoma cells) are cultured in high-glucose Dulbecco's modified Eagle's medium (DMEM) with 10% fetal bovine serum (FBS) introduced thereto. Each type of cells is cultured in an incubator under the conditions of 37° C. and 5% CO2.
(§2) Cell survivability and cytotoxicity are determined in a 96-well plate by MTT assay. Each type of cells is implanted into a 6-well plate in a number of 3×10^4/well (ASC) and 4×10^4/well and cultured for 24 hours. Then, media change into high-glucose DMEM is carried out for both ASC and B16 and cultured overnight. After starvation, the cells are treated with each of the compounds according to Examples at a different concentration (0.1, 1, 10, 50, 100 μM), and further incubated for 24 hours and 48 hours under the conditions of 37° C. and 5% CO2. Then, MTT solution (5 mg/ml in PBS) is added to each well in an amount corresponding to 1/20 of the media volume, and incubation is carried out at 37° C. for 2 hours so that the cells are colored. After that, the supernatant is removed and dimethyl sulfoxide is added to carry out discoloration. The solution is determined by using an enzyme-linked immunosorbent assay (ELISA) reader at a wavelength of 595 nm.
In general terms: Tetrazolium dyes change colour on reduction, which living cells bring about.

For data set [2], the system named is Adipose-derived stem cells. Description: Migration assay (mechanical wound, Incucyte zoom). The data set is classed as cell-based. As to conditions: 0.1, 1, 10, 50 μM, 24 and 48 hours; FIG. 5 and FIG. 6. On the procedure:
Adipose-derived stem cells are implanted into a 96-well plate in a number of 3×10^4/well and cultured for 24 hours. Then, media change into high-glucose DMEM is carried out and the cells are cultured overnight. After starvation, a mechanical wound is made and the cells are treated with each of the compounds according to Examples at a different concentration (0.1, 1, 10, 50 μM). Next, the cells are incubated for 24 hours and 48 hours under the conditions of 37° C. and 5% CO2. Then, the Incucyte zoom (Essen Bioscience, USA) is photographed from the time point of treatment with each compound at an interval of 1 hour to analyze the migration of ASC.

The subject of data set [3] is Adipose-derived stem cells (ASC). Description: Proliferation/viability MTT assay, adipose-derived stem cells. The format is cell-based. As to conditions: 0.1-100 μM, 24 and 48 hours, FIG. 2. On the procedure:
as §1, §2

The target in data set [4] is T1, human cystic fibrosis conductance transmembrane regulator (CFTR) (Homo sapiens, UniProt P13569).
T1 construct: expressed in transfected cells; host or cells: FRT cells (Fischer rat thyroid epithelial cells)
Description: Effect upon CFTR chloride ion channel activity (YFP fluorescence quenching by iodide influx in FRT cells). The format is cell-based. Conditions: for Emax at 30 µM: FRT, 10 min, final concentration of 30 μM, reaction for 10 minutes, ratio based on the CFTR activity maximized by forskolin. On the procedure: FRT cells expressing […] specific to human cystic fibrosis conductance transmembrane regulator (CFTR) and iodide ions are cultured in the Coon's modified F-12 culture medium for 48 hours on a 96-well plate. Each well of the plate containing the cultured cells is washed three times with 200 μl of PBS buffer, and then 100 μl of PBS buffer is added to each well. The indolizino[3,2-c]quinoline derivative according to each Example is introduced to each well to a final concentration of 30 μM, followed by reaction for 10 minutes. After the completion of the reaction, the 96-well is mounted to a FLUOstar Omega microplate reader (BMG LABTECH) and 100 μl of NaI solution is added to each well. Then, YFP fluorescence reduced by the iodide ions introduced to the cells through CFTR is recorded at an interval of 0.4 seconds for 24 seconds in total, thereby evaluating the effect of each compound upon CFTR activity.
The effect of each indolizino[3,2-c]quinoline derivative upon CFTR chloride ion channel activity is calculated as an activity ratio based on the CFTR activity maximized by a well-known CFTR agonist, forskolin.

T1 sequence (P13569 whole entry): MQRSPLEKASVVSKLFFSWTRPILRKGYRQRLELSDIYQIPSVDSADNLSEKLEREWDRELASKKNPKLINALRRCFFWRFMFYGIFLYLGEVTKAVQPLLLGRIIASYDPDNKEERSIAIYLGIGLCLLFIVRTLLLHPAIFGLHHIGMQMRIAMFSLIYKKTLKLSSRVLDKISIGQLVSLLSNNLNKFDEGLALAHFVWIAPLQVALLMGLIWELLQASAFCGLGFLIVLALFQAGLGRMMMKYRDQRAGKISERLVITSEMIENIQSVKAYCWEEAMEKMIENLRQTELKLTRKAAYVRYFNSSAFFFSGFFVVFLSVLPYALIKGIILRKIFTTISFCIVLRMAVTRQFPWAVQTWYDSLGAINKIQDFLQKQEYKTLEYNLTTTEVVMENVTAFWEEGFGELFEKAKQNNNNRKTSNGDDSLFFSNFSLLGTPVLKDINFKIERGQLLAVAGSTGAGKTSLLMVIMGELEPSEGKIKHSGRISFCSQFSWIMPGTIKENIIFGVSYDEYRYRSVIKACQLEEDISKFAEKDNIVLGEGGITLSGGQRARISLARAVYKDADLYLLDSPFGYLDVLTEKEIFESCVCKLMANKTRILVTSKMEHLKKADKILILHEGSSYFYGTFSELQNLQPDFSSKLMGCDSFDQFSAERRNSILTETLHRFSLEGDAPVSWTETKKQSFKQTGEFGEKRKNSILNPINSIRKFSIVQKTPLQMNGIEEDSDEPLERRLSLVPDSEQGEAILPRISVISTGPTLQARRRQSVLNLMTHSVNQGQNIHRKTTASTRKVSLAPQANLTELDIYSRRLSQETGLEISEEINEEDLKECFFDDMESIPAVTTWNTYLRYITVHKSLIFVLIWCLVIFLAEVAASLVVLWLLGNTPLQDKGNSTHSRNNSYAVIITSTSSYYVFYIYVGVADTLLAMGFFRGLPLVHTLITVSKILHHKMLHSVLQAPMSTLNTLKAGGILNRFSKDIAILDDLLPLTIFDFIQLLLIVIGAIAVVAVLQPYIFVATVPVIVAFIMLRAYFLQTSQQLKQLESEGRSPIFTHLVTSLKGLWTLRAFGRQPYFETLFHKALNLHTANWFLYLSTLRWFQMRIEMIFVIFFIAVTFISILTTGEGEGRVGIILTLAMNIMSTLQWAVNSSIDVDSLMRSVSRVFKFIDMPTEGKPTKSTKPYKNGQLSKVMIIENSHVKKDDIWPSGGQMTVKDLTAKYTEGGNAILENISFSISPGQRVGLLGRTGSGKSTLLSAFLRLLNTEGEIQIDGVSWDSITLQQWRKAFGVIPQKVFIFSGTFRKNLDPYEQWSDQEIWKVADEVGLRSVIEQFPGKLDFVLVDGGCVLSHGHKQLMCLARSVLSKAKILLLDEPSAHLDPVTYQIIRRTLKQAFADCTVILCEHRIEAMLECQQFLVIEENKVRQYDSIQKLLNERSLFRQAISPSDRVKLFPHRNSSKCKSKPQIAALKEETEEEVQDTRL

Consider `c1ccc2c(-c3nc4ccccc4c4cc5ccccn5c34)cccc2c1` [Example 12, 6-(Naphthalen-1-yl)indolizino[3,2-c]quinoline], for which the melting point lay in the range of 205.6 to 206.3 °C. Further, the cytotoxicity result in data set [1] was “no toxicity”. Further, in data set [2], the “migration ability of adipose-derived stem cells” value is on record as “has migration ability”. Besides, the “proliferation of adipose-derived stem cells” value (shortened to “proliferation”) in data set [3] is reported as “highly effective”. Further, in data set [4], the Emax at 30 µM stood at 44%.
`c1ccc(-c2nc3ccccc3c3cc4ccccn4c23)nc1` [Example 14, 6-(Pyridin-2-yl)indolizino[3,2-c]quinoline] registered a melting point of 177.9 to 178.3 °C. Also, the “proliferation” value in data set [3] is “highly effective”. Moreover, in data set [4] (30 μM, comment on Table 2), the “CFTR activity ratio, result in words” value is recorded as “high activity ratio”. Moreover, in data set [4], the Emax at 30 µM was 82%.
As to `Cc1cccn2c1cc1c3ccccc3nc(-c3ccco3)c12` [Example 23, 6-(Furan-2-yl)-11-methylindolizino[3,2-c]quinoline], the melting point fell in the range of 112.4 to 113.2 °C. Moreover, in data set [3], the “proliferation” value is “highly effective”.
`Brc1ccc2cc3c4ccccc4nc(-c4cccc5ccccc45)c3n2c1` [Example 27, 9-Bromo-6-(4naphthalen-1-yl)indolizino[3,2-c]quinoline] gave a melting point of 212 to 212.7 °C. Also, the cytotoxicity entry in data set [1] was “no toxicity”. Moreover, the “migration ability of adipose-derived stem cells” value in data set [2] is on record as “has migration ability”. Besides, in data set [3], the “proliferation” value is listed as “highly effective”.

As usually defined, the melting point is the temperature of the solid-liquid transition. As a reminder, the Emax is the size of the effect at its maximum, as opposed to the concentration needed.

(Values after patent US9296751B1, “Indolizino[3,2-c]quinoline derivatives, pharmaceutically acceptable salt thereof, preparation method thereof and pharmaceutical composition for treatment of cystic fibrosis containing the same as active ingredient” (INDUSTRY-ACADEMIC COOPERATION FOUNDATION, YONSEI UNIVERSITY, priority 2014, dated 2016).)
